The source of these data is article PMC6017588, “Synthesis and Structure-Activity Relationships of LP1 Derivatives: N-Methyl-N-phenylethylamino Analogues as Novel MOR Agonists” (Molecules : A Journal of Synthetic Chemistry and Natural …, 2018).

On the set-up of assay [1]: method as in PMID 22100511, PMID 22580287. The settings on record: in vivo tested; cited from earlier work.
For assay [2], the target named is T1, DOR (Rattus norvegicus, UniProt P33533).
T1 construct: from tissue; host or cells: rat brain membranes
As to the kind of experiment: DOR competitive radioligand binding ([3H]-DPDPE displacement, rat brain membranes). The settings on record: [3H]DPDPE displacement, rat brain membranes; read-out: Ki (nM) ± SEM DOR.

Assay [3] concerns DOR. On the set-up: method as in PMID 20599386. The settings on record: earlier work; read-out: IC50 DOR (intrinsic activity); cited from earlier work.
The target of a further assay is T2, KOR (Cavia porcellus, UniProt P41144).
T2 construct: from tissue; host or cells: guinea pig brain membranes
Description: KOR competitive radioligand binding ([3H]-(+)-U69,593 displacement, guinea pig brain membranes). The settings on record: [3H]U69,593 displacement, guinea pig brain membranes; read-out: Ki (nM) ± SEM KOR.

Assay [4] addresses T3, MOR (Rattus norvegicus, UniProt P33535). As to the kind of experiment: Inhibition of forskolin-stimulated cAMP accumulation in HEK293 cells stably expressing MOR. The class given is cell-based. The settings on record: maximal percent inhibition of cAMP accumulation, read-out: Imax (%) ± SD MOR. The procedure: As typical Gi/o coupled receptor, MOR, DOR and KOR signals are mediated by AC inhibition.
Cell culture. HEK293 cells stably expressing either the EE-tagged MOR or the flag-tagged KOR [20, 21, 22] were grown in Dulbecco’s modified Eagle’s medium (DMEM) supplemented with 10% fetal calf serum, 2 mM glutamine, 100 U/mL penicillin, and 0.1 mg/mL streptomycin under 5% CO2 at 37 °C.
Measurements of cAMP accumulation. Measurements of AC activity were performed as described by Papakonstantinou et al. or the GloSensor cAMP Assay (Promega) following the Manufacturer’s instructions. The generation of cAMP was assessed in response to treatment of the cells with various concentrations of the appropriate ligand (10 pM–50 μΜ) using 50 μΜ forskolin at 37 °C. Values are means ± SD of triplicate determinations from three independent experiments. Analysis of the data was performed using Origin 7.5 software (OriginLab Corporation, Northampton, MA, USA).
(In general: Cyclic AMP is a second messenger, typically raised through Gs and lowered through Gi signalling.)

Assay [5] deals with T3, MOR. Description: MOR competitive radioligand binding ([3H]-DAMGO displacement, rat brain membranes). On the set-up: from tissue; host or cells: rat brain membranes. The settings on record: [3H]DAMGO displacement, rat brain membranes; read-out: Ki (nM) ± SEM MOR.

Take `C[C@H]1[C@H]2Cc3ccc(O)cc3[C@]1(C)CCN2CCC(=O)Nc1ccccc1` [LP1, reference compound]: the “ED50 (analgesia)” value in assay [1] is 2.03 mg/kg. In addition, the Ki at DOR [2] worked out at 29.1 ± 1 nM; on KOR it was 110 ± 6 nM; at MOR [5], 0.83 ± 0.05 nM. Further, the IC50 in the assay on DOR [3] is 12 nM. In addition, the Emax on MOR [4] came out at 73 ± 3.8%.

One may read the Ki as a measure of affinity in units of concentration, obtained from inhibition or displacement. Broadly, the IC50 is the concentration that gives 50% inhibition.
